System: Unknown protein yeast genes
Assay: DNA chip mRNA expression in yeast, unknown protein yeast genes (Table 1)
Type: cell-based, Saccharomyces cerevisiae S288C
Procedure, shortened: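 Whole-genome yeast DNA chip hybridization (65° C., >12 h) of Cy-labeled cDNA from S288C cells exposed 2 h at 25° C. to a sub-lethal toxicant dose in YPD; value is intensity relative to chemical-free control.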

In the case of `Cl[C@H]1[C@H](Cl)[C@@H](Cl)[C@@H](Cl)[C@H](Cl)[C@H]1Cl` [(7), γ-hexachlorocyclohexane], the “The level of expressed mRNA in the presence of chemical substance/The level of expressed mRNA in the absence of chemical substance” value (yeast gene YAL053W, incubated two hours with chemical substance) is reported as 0.7, the “The level of expressed mRNA in the presence of chemical substance/The level of expressed mRNA in the absence of chemical substance” value (yeast gene YBL048W) is reported as 1.9 and the “The level of expressed mRNA in the presence of chemical substance/The level of expressed mRNA in the absence of chemical substance” value (yeast gene YBL107C) is reported as 2.1. The “The level of expressed mRNA in the presence of chemical substance/The level of expressed mRNA in the absence of chemical substance” value (yeast gene YDL072C, incubated two hours with chemical substance) was 1.8, the “The level of expressed mRNA in the presence of chemical substance/The level of expressed mRNA in the absence of chemical substance” value (yeast gene YDL204W, incubated two hours with chemical substance) was 3.2 and the “The level of expressed mRNA in the presence of chemical substance/The level of expressed mRNA in the absence of chemical substance” value (yeast gene YDL222C, incubated two hours with chemical substance) was 1.0. The “The level of expressed mRNA in the presence of chemical substance/The level of expressed mRNA in the absence of chemical substance” value (yeast gene YDR330W, incubated two hours with chemical substance) was 1.3, the “The level of expressed mRNA in the presence of chemical substance/The level of expressed mRNA in the absence of chemical substance” value (yeast gene YDR411C, incubated two hours with chemical substance) was 2.0 and the “The level of expressed mRNA in the presence of chemical substance/The level of expressed mRNA in the absence of chemical substance” value (yeast gene YDR511W, incubated two hours with chemical substance) was 1.5. The “The level of expressed mRNA in the presence of chemical substance/The level of expressed mRNA in the absence of chemical substance” value (yeast gene YDR545W, incubated two hours with chemical substance) was 1.2, the “The level of expressed mRNA in the presence of chemical substance/The level of expressed mRNA in the absence of chemical substance” value (yeast gene YEL001C, incubated two hours with chemical substance) was 1.1 and the “The level of expressed mRNA in the presence of chemical substance/The level of expressed mRNA in the absence of chemical substance” value (yeast gene YER004W, incubated two hours with chemical substance) was 1.4. For the same compound, the “The level of expressed mRNA in the presence of chemical substance/The level of expressed mRNA in the absence of chemical substance” value (yeast gene YER035W, incubated two hours with chemical substance) was 1.9, the “The level of expressed mRNA in the presence of chemical substance/The level of expressed mRNA in the absence of chemical substance” value (yeast gene YER079W, incubated two hours with chemical substance) was 1.9 and the “The level of expressed mRNA in the presence of chemical substance/The level of expressed mRNA in the absence of chemical substance” value (yeast gene YER106W, incubated two hours with chemical substance) was 1.0. For the same compound, the “The level of expressed mRNA in the presence of chemical substance/The level of expressed mRNA in the absence of chemical substance” value (yeast gene YER158C, incubated two hours with chemical substance) was 1.2, the “The level of expressed mRNA in the presence of chemical substance/The level of expressed mRNA in the absence of chemical substance” value (yeast gene YER163C, incubated two hours with chemical substance) was 1.5 and the “The level of expressed mRNA in the presence of chemical substance/The level of expressed mRNA in the absence of chemical substance” value (yeast gene YER175C, incubated two hours with chemical substance) was 2.3. The “The level of expressed mRNA in the presence of chemical substance/The level of expressed mRNA in the absence of chemical substance” value (yeast gene YFL006W, incubated two hours with chemical substance) was 1.0, the “The level of expressed mRNA in the presence of chemical substance/The level of expressed mRNA in the absence of chemical substance” value (yeast gene YFL010C, incubated two hours with chemical substance) was 1.5 and the “The level of expressed mRNA in the presence of chemical substance/The level of expressed mRNA in the absence of chemical substance” value (yeast gene YFL024C) was 3.3. For the same compound, the “The level of expressed mRNA in the presence of chemical substance/The level of expressed mRNA in the absence of chemical substance” value (yeast gene YFL032W, incubated two hours with chemical substance) was 1.1, the “The level of expressed mRNA in the presence of chemical substance/The level of expressed mRNA in the absence of chemical substance” value (yeast gene YGL037C, incubated two hours with chemical substance) was 2.9 and the “The level of expressed mRNA in the presence of chemical substance/The level of expressed mRNA in the absence of chemical substance” value (yeast gene YGL047W, incubated two hours with chemical substance) was 1.7. The “The level of expressed mRNA in the presence of chemical substance/The level of expressed mRNA in the absence of chemical substance” value (yeast gene YGL053W, incubated two hours with chemical substance) was 3.7, the “The level of expressed mRNA in the presence of chemical substance/The level of expressed mRNA in the absence of chemical substance” value (yeast gene YGL121C) was 4.7 and the “The level of expressed mRNA in the presence of chemical substance/The level of expressed mRNA in the absence of chemical substance” value (yeast gene YGL199C, incubated two hours with chemical substance) was 1.3. The “The level of expressed mRNA in the presence of chemical substance/The level of expressed mRNA in the absence of chemical substance” value (yeast gene YGR101W, incubated two hours with chemical substance) was 1.5, the “The level of expressed mRNA in the presence of chemical substance/The level of expressed mRNA in the absence of chemical substance” value (yeast gene YGR110W) was 1.7 and the “The level of expressed mRNA in the presence of chemical substance/The level of expressed mRNA in the absence of chemical substance” value (yeast gene YGR130C, incubated two hours with chemical substance) was 1.3. For the same compound, the “The level of expressed mRNA in the presence of chemical substance/The level of expressed mRNA in the absence of chemical substance” value (yeast gene YGR154C, incubated two hours with chemical substance) was 2.0, the “The level of expressed mRNA in the presence of chemical substance/The level of expressed mRNA in the absence of chemical substance” value (yeast gene YGR221C, incubated two hours with chemical substance) was 1.2 and the “The level of expressed mRNA in the presence of chemical substance/The level of expressed mRNA in the absence of chemical substance” value (yeast gene YHR138C, incubated two hours with chemical substance) was 3.0. For the same compound, the “The level of expressed mRNA in the presence of chemical substance/The level of expressed mRNA in the absence of chemical substance” value (yeast gene YHR199C, incubated two hours with chemical substance) was 1.1, the “The level of expressed mRNA in the presence of chemical substance/The level of expressed mRNA in the absence of chemical substance” value (yeast gene YIL023C, incubated two hours with chemical substance) was 1.2 and the “The level of expressed mRNA in the presence of chemical substance/The level of expressed mRNA in the absence of chemical substance” value (yeast gene YIL041W, incubated two hours with chemical substance) was 0.8. For the same compound, the “The level of expressed mRNA in the presence of chemical substance/The level of expressed mRNA in the absence of chemical substance” value (yeast gene YIL087C, incubated two hours with chemical substance) was 1.8, the “The level of expressed mRNA in the presence of chemical substance/The level of expressed mRNA in the absence of chemical substance” value (yeast gene YJL057C, incubated two hours with chemical substance) was 2.7 and the “The level of expressed mRNA in the presence of chemical substance/The level of expressed mRNA in the absence of chemical substance” value (yeast gene YJL066C, incubated two hours with chemical substance) was 1.6. For the same compound, the “The level of expressed mRNA in the presence of chemical substance/The level of expressed mRNA in the absence of chemical substance” value (yeast gene YJL082W, incubated two hours with chemical substance) was 0.4, the “The level of expressed mRNA in the presence of chemical substance/The level of expressed mRNA in the absence of chemical substance” value (yeast gene YJL151C, incubated two hours with chemical substance) was 1.4 and the “The level of expressed mRNA in the presence of chemical substance/The level of expressed mRNA in the absence of chemical substance” value (yeast gene YJL152W, incubated two hours with chemical substance) was 1.2. The “The level of expressed mRNA in the presence of chemical substance/The level of expressed mRNA in the absence of chemical substance” value (yeast gene YJL161W, incubated two hours with chemical substance) was 3.6, the “The level of expressed mRNA in the presence of chemical substance/The level of expressed mRNA in the absence of chemical substance” value (yeast gene YJL171C, incubated two hours with chemical substance) was 1.4 and the “The level of expressed mRNA in the presence of chemical substance/The level of expressed mRNA in the absence of chemical substance” value (yeast gene YJR008W, incubated two hours with chemical substance) was 2.9. For the same compound, the “The level of expressed mRNA in the presence of chemical substance/The level of expressed mRNA in the absence of chemical substance” value (yeast gene YJR054W, incubated two hours with chemical substance) was 0.9, the “The level of expressed mRNA in the presence of chemical substance/The level of expressed mRNA in the absence of chemical substance” value (yeast gene YKL071W) was 3.7 and the “The level of expressed mRNA in the presence of chemical substance/The level of expressed mRNA in the absence of chemical substance” value (yeast gene YKL086W, incubated two hours with chemical substance) was 0.7. For the same compound, the “The level of expressed mRNA in the presence of chemical substance/The level of expressed mRNA in the absence of chemical substance” value (yeast gene YKL151C, incubated two hours with chemical substance) was 5.6 and the “The level of expressed mRNA in the presence of chemical substance/The level of expressed mRNA in the absence of chemical substance” value (yeast gene YKL153W, incubated two hours with chemical substance) was 1.1.

— patent US8192962B2, “Processes for detecting toxic substances” (Daikin Industries, Ltd., priority 2001, dated 2012)
